Results reported in patent publication US20250114337A1, “METHODS FOR VASCULAR REGENERATION AND WOUND TREATMENT” (THE METHODIST HOSPITAL, priority 2022, published 2025).
Entries after “also recorded” stand apart in the source; their conditions may differ. Like-named read-outs stand apart in the source and are kept apart here.

Columns and labels:
[1] = test system: BJ fibroblasts; test: in vitro transdifferentiation of fibroblasts to induced endothelial cells (iECs); assay type: cell-based, human; details: fibroblasts exposed during transdifferentiation protocol
Text: Innate immune activation is required for transdifferentiation. […] 131 (3): p. 300-9). iECs generated from this protocol manifest high fidelity for endothelial lineage. They incorporate acetylated LDL (FIG. 2B), form tubular networks (FIG. 2C), have similar transcriptomes as genuine endothelial cells, and increase capillary density and perfusion when injected into the ischemic hindlimb of the mouse (FIG. 2D) (Sayed, N., et al., Circulation, 2015. 131 (3): p. 300-9). This protocol can be utilized to study the role of O-GlcNAcylation in transdifferentiation in vitro.
O-GlcNAcylation is required for in vitro transdifferentiation. To define if the elevation of O-GlcNAcylation is required for transdifferentiation, fibroblasts were exposed to Thiamet G (TMG) (an OGA inhibitor that enhances O-GlcNAcylation) or DON (an inhibitor for GFAT that acts upstream in the hexosamine biosynthesis pathway and reduces O-GlcNAcylation). The number of iECs generated during transdifferentiation is increased when fibroblasts are exposed to TMG and decreased when exposed to DON (FIG. 5A). […] The role of O-GlcNAcylation of specific epigenetic regulars e.g., HIRA during transdifferentiation can also be addressed.
To define if the elevation of O-GlcNAcylation is required for transdifferentiation, inhibitors of O-GlcNAcylation including OSMI (an inhibitor for OGT) and DON (an inhibitor for GFAT that acts upstream in the hexosamine biosynthesis pathway and reduces O-GlcNAcylation) or an activator of O-GlcNAcylation. Thiamet G (TMG) (an OGA inhibitor that enhances O-GlcNAcylation), were delivered to BJ fibroblasts undergoing transdifferentiation. The number of CD31 expressing iECs generated during transdifferentiation decreases when exposed to OSMI or DON and increases when fibroblasts are exposed to TMG (FIG. 17B). Then OGT or OGA were knocked down using shRNA in the BJ fibroblasts (FIG. 17C) and performed transdifferentiation protocol in vitro.

[2] = test system: ischemic hindlimb mice model; test: hindlimb ischemia recovery in WT C57BL/6 mice, laser doppler imaging; assay type: in vivo, mouse; details: TMG 10 mg/kg 0, 1, 2 days post-surgery; older mice (around 20 weeks)
Procedure: O-GlcNAcylation manipulations regulated recovery from tissue ischemia. To determine if the change in O-GlcNAcylation can modulate limb ischemia recovery, and contributes to vascular recovery, WT C57BL/6 mice were treated with the O-GlcNAcylation inhibitor, OSMI4, or O-GlcNAcylation enhancer, TMG 0, 1, 2 days post-surgery. Age is an important factor that determines recovery, and younger mice are known to have a more robust angiogenic response as compared with older mice. Accordingly, younger mice (between 8 to 12 weeks) were used to assess the impairment of angiogenesis by OSMI (which reduces O-GlcNAcylation). Older mice (around 20 weeks) were used to assess the enhancement of angiogenesis by TMG (which increases O-GlcNAcylation). […] It will be determined whether this beneficial effect is mediated by increased DNA accessibility and enhanced transdifferentiation.
To determine if O-GlcNAcylation manipulations can modulate the overall effect of vascular recovery from limb ischemia. WT C57BL/6 mice were treated with the O-GlcNAcylation inhibitor. OSMI4 (10 mg/kg), or O-GlcNAcylation enhancer. TMG (10 mg/kg) 0, 1, 2 days post-surgery (FIG. 19A).

[3] = test system: ischemic hindlimb model; test: ischemic hindlimb model in fibroblast lineage tracing Fsp1-Cre: R26R-EYFP mice; assay type: in vivo, mouse; details: ischemic hindlimb
Procedure: Using established transdifferentiation protocol and metabolomics profiling to assess the global metabolic changes during transdifferentiation. […] To determine the role of this metabolite in transdifferentiation, the effect of Thiamet G was assessed, an inhibitor of OGA, which enhances O-GlcNAcylation. Thiamet G increased transdifferentiation efficiency in vitro. In a fibroblast lineage tracing mice, Fsp1-Cre: R26R-EYFP mice, Thiamet G increased tissue O-glycnacylation, increased capillary density and limb perfusion, and increased the number of fibroblasts transdifferentiating into endothelial cells (i.e. FSP+CD31+ cell) in an ischemic hindlimb model.
Angiogenic transdifferentiation in limb ischemia. A fibroblast lineage tracing mouse model (Fsp1-Cre: R26R-EYFP) was used to detect transdifferentiation in vivo in a murine model of limb ischemia (Meng, S., et al., Circulation, 2020. 142 (17): p. 1647-1662). […] This population is abolished when the mice are treated with anti-inflammatory drugs, such as dexamethasone. Intriguingly, the disappearance of these cells is associated with a reduction in perfusion recovery and worsening clinical scores. Similar results are achieved when inflammatory signaling is impaired, as in Fsp1-Cre: Rela flox/flox mice. In these animals, NFκB signaling is blocked in the Fsp1+fibroblasts, associated with a dramatic reduction in transdifferentiated fibroblasts (i.e. YFP+CD144+ cells), and impaired perfusion (Meng. S., et al., Circulation, 2020. 142 (17): p. 1647-1662). […] Cluster 8 produced angiogenic cytokines, whereas Cluster 5 expressed genes associated with EC identity (i.e CD144). But only Cluster 5 could generate EC-like networks in Matrigel whereas other fibroblasts, including Cluster 8 fibroblasts, formed nodal structures typical of fibroblasts in Matrigel. The data support the idea that transdifferentiation may occur in vivo with tissue ischemia, and is dependent on inflammatory signaling. This model can be used to study the contribution of O-GlcNAcylation in transdifferentiation and limb ischemia recovery in vivo. A similar lineage tracing approach can be used with tamoxifen-inducible Col1A2-Cre/ERT: R26R-tdTomato mouse strain to study the contribution of O-GlcNAcylation in transdifferentiation and limb ischemia recovery in vivo.
To determine if O-GlcNAcylation enhances revascularization through transdifferentiation, fibroblasts lineage tracing Fsp1-Cre: R26R-EYFP mice strain were utilized where it was previously observed the in situ transdifferentiation phenomenon (FIG. 20A). In this model, all the fibroblasts expressing Fsp1 (fibroblast-specific protein1) are marked with YFP. With this model, a significant increase in the FSP-expressing cell progeny in the ischemic limb was identified compared with the sham-operated limb 3 days after the femoral artery ligation was perform (FIG. 20A) and compare the YFP+ cells over the different time points (FIG. 20A). The percentage of the YFP+CD31+CD11b-cell population which is considered the transdifferentiation population was analyzed further. […] To determine the role of the O-GlcNAcylation on the transdifferentiation, the Fsp1-Cre: R26R-EYFP mice that are undergoing vascular recovery with OSMI were treated, and the transdifferentiation population in the limb muscle tissue 7 days post-surgery was analyzed.

[4] = test system: UDP-GlcNAc; test: LC-MS-based metabolomic analysis of fibroblasts undergoing transdifferentiation; assay type: cell-based, human; details: 30 ng/ml Poly I:C with induction medium, 0, 1, 3 days
Procedure: (§1) Cellular O-GlcNAcylation is elevated during transdifferentiation. […] TLR3 activation increases DNA accessibility and facilitates transdifferentiation. Other forms of inflammatory activation also increase DNA accessibility (as with RIG1 activation). […] To determine if the increase in UDP-GlcNAc is associated with an increase in O-GlcNAcylation, cells were treated with PolyI:C or vehicle for 3 days, then the O-GlcNAcylated proteins in the nuclear (N), cytoplasmic (C), or whole-cell (W) lysates were enzymatically labeled with azido-modified galactose (GalNAz), which were further detected by click-it chemistry using a biotinylated alkyne and Western.
To profile the global metabolic changes during transdifferentiation, untargeted metabolomics with BJ human fibroblast cells undergoing transdifferentiation protocol was performed and treated with 30 ng/ml Poly I:C with the induction medium for 0, 1, and 3 days. Over 100 metabolites were identified from the LC-MS-based metabolomic analysis. […] UDP-GlcNAc is the substrate for O-GlcNAcylation and is the end-product of the hexosamine biosynthesis pathway (HBP).

[5] = test system: O-GlcNAcylated proteins; test: Click-it O-GlcNAc enzymatic labeling and detection assay; assay type: cell-based; details: 3 days vs vehicle, nuclear, cytoplasmic, whole-cell lysates
Procedure: as §1
To determine if the increase in UDP-GlcNAc is associated with an increase in O-GlcNAcylation, cells were treated with Poly I:C or vehicle for 3 days, then the O-GlcNAcylated proteins in the nuclear (N), cytoplasmic (C), or whole-cell (W) lysates were enzymatically labeled with azido-modified galactose (GalNAz), which were further detected by click-it chemistry using a biotinylated alkyne and Western.

[6] = test system: accessible chromatin; test: ATAC seq chromatin accessibility in fibroblasts; assay type: cell-based
Text: Chromatin accessibility mapping is a powerful approach to identify sites of open chromatin (i.e. to infer sites of active transcription). In ATAC-seq, a Tn5 transposase inserts sequencing adapters into accessible DNA (‘tagmentation’). […] In the right panel, exposure of the fibroblasts to polyIC increases the average length (KB) of open chromatin.
Identify the role of O-GlcNAcylation in DNA accessibility. […] However, it is unknown if this occurs during transdifferentiation of fibroblasts to iECs. […] To test if O-GlcNAcylation controls this process.

[7] = test system: H3.3 deposition; test: H3.3-SNAP tagging, quench-chase-pulse TMR-Star labeling; assay type: cell-based; details: vs control
Text: To identify the role of O-GlcNAcylation of histone variant h3.3 chaperone protein, HIRA, on transdifferentiation. The effects of O-GlcNAcylation on proteins that may be involved in the epigenetic regulation of transdifferentiation can be assessed. Nucleosome turnover is known to be tightly interrelated with DNA accessibility, and histone variant h3.3 is a hallmark of regulatory regions in the mammalian genome and is required to establish open chromatins. HIRA is the chaperone for h3.3, it forms a complex with other subunits, including ASF1. UBN, and CABIN, and is responsible for h3.3 deposition on the chromatin. OGT interacts with and O-GlcNAcylates HIRA, both of which are critical for the formation of the HIRA-h3.3 complex and h3.3 deposition and its dependent gene activation. […] The role of HIRA in transdifferentiation with fibroblasts that have HIRA knocked down or overexpressed can be determined. […] Thereafter, the de novo deposited SNAP-h3.3 will be pulse-labeled with the TMR-Star, which is a readily detectable and quantifiable red-fluorescent substrate. […]
To test whether innate immune activation enhances the H3.3 deposition in the chromatin, the H3.3-SNAP tagging system was generated where the newly synthesized H3.3 will be detected by fluorescent TMR-Star labeling with quench-chase-pulse strategy.

[8] = test system: HIRA-H3.3 complex; test: immunoprecipitation using HIRA antibody; assay type: cell-based; details: after Poly I:C treatment
Text: The histone variant h3.3 is a replacement for its canonical form of h3.1 and h3.2 in the nucleosome. Its deposition is usually associated with transcription activation and enhanced DNA accessibility. The complex that is responsible for h3.3 deposition is called HIRA complex which consists of HIRA. UBN, and cabin as the histone chaperone proteins. The HIRA O-GlcNAcylation is known to be critical for its function in H3.3 deposition. During the vascular recovery in the WT mice, the level of HIRA complex subunits, including ASFIA. HIRA. UBN, as well as the H3.3 deposition are increased (FIG. 22A). The HIRA-H3.3 pathway in the fibroblast progeny cells is activated, especially in the limbs recovering from ischemia 3- and 7-days post-surgery compared with the non-YFP+ cells (FIG. 22B). […] An in vitro system to test whether the HIRA-H3.3 pathway is activated during transdifferentiation was used.

[9] = test system: BJ fibroblasts; details: PolyI:C alone, without endothelial growth factors; cited from earlier work
[10] = test system: MEFs; details: Chanda et al. 2019; cited from earlier work

Row | Molecule | iEC yield (number of CD31 expressing iECs generated during transdifferentiation) [1] | iEC yield (number of CD31 expressing iECs generated during transdifferentiation) ([1]; listed as Thiamet G) | recovery of blood flow post femoral artery ligation (revascularization) [2] | capillary density [3] | limb perfusion [3] | number of fibroblasts transdifferentiating into endothelial cells (FSP+CD31+ cell) [3] | tissue O-glycnacylation [3] | UDP-GlcNAc level [4] | UDP-GlcNAc level ([4]; listed as Poly I:C) | O-GlcNAcylation [5] | O-GlcNAcylation ([5]; listed as Poly I:C) | chromatin accessibility (open chromatin around TSS) [6] | chromatin accessibility (open chromatin around TSS) ([6]; listed as polyIC) | H3.3 deposition [7] | HIRA interaction with UBN and H3.3 [8] | transdifferentiation of fibroblasts to endothelial cells [9] | DNA accessibility [10]
1 | [N-]=[N+]=CC(=O)CC[C@H](N)C(=O)O [DON] | decreases; also recorded: impair |  |  |  |  |  |  |  |  |  |  |  |  |  |  |  | 
2 | CCNC1=NC2C(OC(CO)C(O)C2O)S1 (stereo not drawn) [TMG, 2-(ethylamino)-5-(hydroxymethyl)-5,6,7,7a-tetrahydro-3aH-pyrano[3,2-d][1,3]thiazole-6,7-diol] | increases | increased | enhanced recovery; also recorded: enhances | increased | increased | increased | increased |  |  |  |  |  |  |  |  |  | 
3 | Polyinosinic:polycytidylic acid [PolyI:C] |  |  |  |  |  |  |  | highly elevated; also recorded: up-regulated | consistently increases | elevation primarily occurs in nuclear proteins; also recorded: augmentation | elevation | more accessible chromatin regions | increases | enhances | enhanced | does not occur | enhances
